Assay results as given in the NIST ThermoML archive (doi:10.1021/je100237h).
± gives the expanded uncertainty stated by the source.

Conditions: Liquid; for mass density: Vibrating tube method; for viscosity: 101.33 kPa, Concentric cylinders viscometry

CC(C)COC(=O)CCCCC(=O)OCC(C)C [diisobutyl adipate]
mass density [kg/m3]
Conditions | 343.15 K | 353.15 K | 363.15 K | 373.15 K | 383.15 K | 393.15 K | 403.15 K
100 kPa | – | 899.3 ± 1.8 | 890.2 ± 1.8 | 882.3 ± 1.8 | 873.2 ± 1.8 | 864.7 ± 1.7 | 856.8 ± 1.7
10000 kPa | – | 908 ± 1.8 | 899.9 ± 1.8 | 891.5 ± 1.8 | 883.6 ± 1.8 | 875.3 ± 1.8 | 867.3 ± 1.8
20000 kPa | – | 916.2 ± 1.9 | 908.7 ± 1.8 | 900.5 ± 1.8 | 893.1 ± 1.8 | 885.1 ± 1.8 | 877.3 ± 1.8
30000 kPa | – | 923.7 ± 1.9 | 916.4 ± 1.9 | 908.6 ± 1.8 | 901.7 ± 1.8 | 893.9 ± 1.8 | 886.5 ± 1.8
40000 kPa | – | 930.9 ± 1.9 | 923.7 ± 1.9 | 916.5 ± 1.9 | 909.6 ± 1.9 | 902.1 ± 1.8 | 894.8 ± 1.8
50000 kPa | – | 937.7 ± 1.9 | 930.4 ± 1.9 | 923.3 ± 1.9 | 916.6 ± 1.9 | 909.5 ± 1.9 | 902.7 ± 1.9
60000 kPa | – | 943.9 ± 1.9 | 936.9 ± 1.9 | 930.1 ± 1.9 | 923.5 ± 1.9 | 916.6 ± 1.9 | 909.9 ± 1.9
70000 kPa | – | 950 ± 1.9 | 943.2 ± 1.9 | 936.4 ± 1.9 | 929.4 ± 1.9 | 923.2 ± 1.9 | 916.6 ± 1.9
80000 kPa | – | 955.5 ± 2 | 948.9 ± 1.9 | 942.2 ± 1.9 | 935.7 ± 1.9 | 929.5 ± 1.9 | 923.3 ± 1.9
90000 kPa | – | 960.8 ± 2 | 954.1 ± 2 | 947.8 ± 2 | 941.2 ± 1.9 | 935.3 ± 1.9 | 929.4 ± 1.9
100000 kPa | – | 965.7 ± 2 | 959.4 ± 2 | 953.2 ± 2 | 946.7 ± 2 | 941.1 ± 2 | 935 ± 2
110000 kPa | 976.5 ± 2 | 970.5 ± 2 | 964.4 ± 2 | 958.2 ± 2 | 951.8 ± 2 | 946.2 ± 2 | 940.3 ± 2
120000 kPa | 981.1 ± 2 | 974.9 ± 2 | 969 ± 2 | 963.2 ± 2 | 957 ± 2 | 951.4 ± 2 | 945.5 ± 2
130000 kPa | 985.5 ± 2 | 979.5 ± 2 | 973.7 ± 2 | 967.8 ± 2 | 961.5 ± 2 | 956.3 ± 2 | 950.6 ± 2
140000 kPa | 989.7 ± 2.1 | 983.7 ± 2.1 | 978.1 ± 2.1 | 972.5 ± 2.1 | 966.1 ± 2.1 | 960.9 ± 2 | 955.4 ± 2

Conditions | viscosity [mPa·s]
348.15 K | 1.85 ± 0.04
353.15 K | 1.71 ± 0.04
358.15 K | 1.59 ± 0.03
363.15 K | 1.48 ± 0.03
368.15 K | 1.38 ± 0.03
373.15 K | 1.29 ± 0.03
